Test results from article PMC12004451, “Characterization of the Two-Domain Peptide Binding Mechanism of the Human CGRP Receptor for CGRP and the Ultrahigh Affinity ssCGRP Variant” (Biochemistry, 2025).
Where “and” joins values, the source holds several entries; their conditions need not be identical. Equal entries are not always repeated. Where two headings read alike, the source gives them in different places. Bridge positions count the residues as written; N and C are the ends. Ends that are not written are not given here. Peptide text beside a SMILES is read from it. * marks the point of attachment. 5TAMRA = CN(C)c1ccc2c(c1)Oc1cc(N(C)C)ccc1C21OC(=O)c2cc(C(=O)*)ccc21

How the values were obtained:
[1] = molecular target: T1, CGRP receptor (Nluc-CLR:RAMP1) (Homo sapiens, UniProt O60894+Q16602); assay: nanoBRET association kinetics of TAMRA probes; format: binding
T1 construct: N-terminally Nanoluciferase (NLuc)-tagged CLR (pcDNA3.1(+)sec/NanoLuc-GSGIS-CLR.23-461); Wild-type CLR and RAMP expression plasmids were obtained from cDNA.org; sec (vector secretion signal before NanoLuc) (N); expressed in transfected cells; host or cells: COS-7 cells, membrane preparation
Description: After 2 days, the cells were washed with PBS and harvested with ice-cold PBS + 5 mM EDTA. The cells were pelleted in a centrifuge at 1000g for 5 min at 4 °C and resuspended in a hypotonic buffer (25 mM NaHEPES pH 7.5, 2 mM MgCl2, 1 mM EDTA, and 1× EDTA-free PIERCE protease inhibitor tablet). After resuspension, cells were homogenized with an Ultra Turrax for 30 s at 10,000 rpm followed by a 10 min incubation. Cell debris was pelleted at 800g for 10 min and the supernatant was transferred to ultracentrifuge tubes and centrifuged at 100,000g for 1 h. Membranes were resuspended in a wash buffer (25 mM NaHEPES pH 7.5, 250 mM NaCl, 2 mM MgCl2, 1 mM EDTA, and 1× protease inhibitor tablet). The homogenization and ultracentrifugation were repeated once more and the membranes were resuspended in storage buffer (25 mM NaHEPES pH 7.5, 25 mM NaCl, 2 mM MgCl2, 10% v/v glycerol, and 1× protease inhibitor tablet). The resuspended membranes were homogenized, aliquoted, and flash frozen in liquid nitrogen for storage at -80 °C. Total protein was quantitated using the DC protein assay (BioRad) per the manufacturer's instructions. The concentration of NLuc-CLR was determined by comparing the membrane prep luminescence to a standard curve using purified NLuc enzyme (Promega; […]). […] Costar 3912). […] The observed association rates (kobs) were plotted against probe concentration and the data was analyzed by linear regression. The kon and koff were obtained as the slope and y-intercept, respectively.

[2] = molecular target: T1, CGRP receptor (Nluc-CLR:RAMP1); assay: nanoBRET equilibrium competition binding, Nluc-CLR:RAMP1 membranes; conditions: room temperature, Cheng-Prusoff, mean ± SEM, n=3
Description: After 2 days, the cells were washed with PBS and harvested with ice-cold PBS + 5 mM EDTA. The cells were pelleted in a centrifuge at 1000g for 5 min at 4 °C and resuspended in a hypotonic buffer (25 mM NaHEPES pH 7.5, 2 mM MgCl2, 1 mM EDTA, and 1× EDTA-free PIERCE protease inhibitor tablet). After resuspension, cells were homogenized with an Ultra Turrax for 30 s at 10,000 rpm followed by a 10 min incubation. Cell debris was pelleted at 800g for 10 min and the supernatant was transferred to ultracentrifuge tubes and centrifuged at 100,000g for 1 h. Membranes were resuspended in a wash buffer (25 mM NaHEPES pH 7.5, 250 mM NaCl, 2 mM MgCl2, 1 mM EDTA, and 1× protease inhibitor tablet). The homogenization and ultracentrifugation were repeated once more and the membranes were resuspended in storage buffer (25 mM NaHEPES pH 7.5, 25 mM NaCl, 2 mM MgCl2, 10% v/v glycerol, and 1× protease inhibitor tablet). The resuspended membranes were homogenized, aliquoted, and flash frozen in liquid nitrogen for storage at -80 °C. Total protein was quantitated using the DC protein assay (BioRad) per the manufacturer's instructions. The concentration of NLuc-CLR was determined by comparing the membrane prep luminescence to a standard curve using purified NLuc enzyme (Promega; […]). […] The Cheng-Prusoff correction[30] was used to calculate the Ki from the IC50.

[3] = molecular target: T1, CGRP receptor (Nluc-CLR:RAMP1); assay: nanoBRET competition association kinetics (Motulsky-Mahan); format: binding; conditions: for Kd: mean ± SEM, n=3, read-out: Kd calc (koff/kon)
Description: Membrane preparation was performed as previously described.[29] COS-7 cells in ten […] plastic culture dishes (Corning; 430599) were transiently transfected with 2 μg NLuc-CLR, 2 μg RAMP1, and 46 μg empty pcDNA3.1(+) expression plasmids/dish with 75 μg Polyethylenimine (PEI)/dish. After 2 days, the cells were washed with PBS and harvested with ice-cold PBS + 5 mM EDTA. The cells were pelleted in a centrifuge at 1000g for 5 min at 4 °C and resuspended in a hypotonic buffer (25 mM NaHEPES pH 7.5, 2 mM MgCl2, 1 mM EDTA, and 1× EDTA-free PIERCE protease inhibitor tablet). After resuspension, cells were homogenized with an Ultra Turrax for 30 s at 10,000 rpm followed by a 10 min incubation. Cell debris was pelleted at 800g for 10 min and the supernatant was transferred to ultracentrifuge tubes and centrifuged at 100,000g for 1 h. Membranes were resuspended in a wash buffer (25 mM NaHEPES pH 7.5, 250 mM NaCl, 2 mM MgCl2, 1 mM EDTA, and 1× protease inhibitor tablet). The homogenization and ultracentrifugation were repeated once more and the membranes were resuspended in storage buffer (25 mM NaHEPES pH 7.5, 25 mM NaCl, 2 mM MgCl2, 10% v/v glycerol, and 1× protease inhibitor tablet). The resuspended membranes were homogenized, aliquoted, and flash frozen in liquid nitrogen for storage at −80 °C. Total protein was quantitated using the DC protein assay (BioRad) per the manufacturer’s instructions. The concentration of NLuc-CLR was determined by comparing the membrane prep luminescence to a standard curve using purified NLuc enzyme (Promega; G9711). The total protein concentration was 0.91 mg/mL and the NLuc-CLR was 7.35 nM.
Emission at 460 and 610 nm were measured every 16 s for 45 min with the PolarSTAR Omega plate reader mixing 300 rpm for 1 s before each cycle. The curves were fit using GraphPad Prism to the Motulsky-Mahan competition kinetics equation[31] modified to account for the signal decay component as previously described[32] to determine the kon and koff of the competitor. The Kd (koff/kon), half-life (ln 2/koff), and residence time (1/koff) values were calculated.

[4] = competition against 10 nM CGRP(27-37)*-TAMRA probe, 2 h, read-out: Ki

Row | kon ([1]; association kinetics, 25 °C, kobs vs probe concentration, slope of linear regression, fit of first 10 min (full 1 h 15 min for ssCGRP(8-37)-TAMRA), mean ± SEM, n=3) [M⁻¹ s⁻¹] | koff ([1]; association kinetics, 25 °C, y-intercept of kobs vs probe concentration, mean ± SEM, n=3) [s⁻¹] | half-life ([1]; from association kinetics) [s] | Ki ([2]; G protein coupled state (30 μM sumo-miniGs), 3 nM AM2/IMD(8-47)-TAMRA probe, 8 h, read-out: Ki + mGs) [nM] | Ki ([2]; G protein uncoupled state (50 μM GTPγS), 30 nM AM2/IMD(8-47)-TAMRA probe, 8 h, read-out: Ki + GTPγS) [nM] | Molecule | Ki [2, 4] [nM] | koff [3] [s⁻¹] | kon [3] [M⁻¹ s⁻¹] | Residence time (1/koff) ([3]; from competition kinetics) | t1/2 (ln 2/koff) ([3]; from competition kinetics) [min] | Kd ([3]; from competition kinetics) [nM] | residence time ([3]; from competition kinetics) [min]
1 | 2.75e+06 | 0.0635 | 11 | – | – | CC(C)[C@H](NC(=O)[C@H](CC(=O)O)NC(=O)[C@@H](NC(=O)[C@@H]1CCCN1C(=O)[C@@H](NC(=O)[C@@H](N)Cc1ccccc1)C(C)C)[C@@H](C)O)C(=O)NCC(=O)N1CCC[C@H]1C(=O)N[C@@H](CCCCNC(=O)c1ccc2c(c1)C(=O)OC21c2ccc(N(C)C)cc2Oc2cc(N(C)C)ccc21)C(=O)N[C@@H](CO)C(=O)N[C@@H](Cc1ccc(O)cc1)C(N)=O [CGRP(27-37)*-TAMRA, αCGRP(27-37) N31D/S34P/K35-TAMRA/A36S/F37Y] (H-FVPTDVGPK(5TAMRA)SY-NH2; N-terminus assumed) | – | – | – | – | – | – | –
2 | – | – | – | 0.19 ± 0.01 | 0.248 ± 0.008 | CC(C)C[C@H](NC(=O)CNC(=O)[C@H](C)NC(=O)[C@H](CC(C)C)NC(=O)[C@H](CCCNC(=N)N)NC(=O)[C@H](Cc1c[nH]cn1)NC(=O)[C@@H](NC(=O)[C@@H](NC(=O)[C@@H]1CSSC[C@H](NC(=O)[C@H](C)N)C(=O)N[C@@H](CC(=O)O)C(=O)N[C@@H]([C@@H](C)O)C(=O)N[C@@H](C)C(=O)N[C@@H]([C@@H](C)O)C(=O)N1)C(C)C)[C@@H](C)O)C(=O)N[C@@H](CC(C)C)C(=O)N[C@@H](CO)C(=O)N[C@@H](CCCNC(=N)N)C(=O)N[C@@H](CO)C(=O)NCC(=O)NCC(=O)N[C@H](C(=O)N[C@H](C(=O)N[C@@H](CCCCN)C(=O)N[C@@H](CC(N)=O)C(=O)N[C@@H](CC(N)=O)C(=O)N[C@@H](Cc1ccccc1)C(=O)N[C@H](C(=O)N1CCC[C@H]1C(=O)N[C@H](C(=O)N[C@@H](CC(=O)O)C(=O)N[C@H](C(=O)NCC(=O)N1CCC[C@H]1C(=O)N[C@@H](Cc1c[nH]c2ccccc12)C(=O)N[C@@H](CO)C(=O)N[C@@H](Cc1ccccc1)C(N)=O)C(C)C)[C@@H](C)O)C(C)C)C(C)C)C(C)C [ssCGRP(1-37)] (H-ACDTATCVTHRLAGLLSRSGGVVKNNFVPTDVGPWSF-NH2; disulfide 2-7) | – | – | – | – | – | – | –
3 | – | – | – | – | – | FVPTDVGPWSF-NH2 [ssCGRP(27-37)] | 0.527 ± 0.039 | 0.00222 | 3.22e+06 | 7.57 ± 0.27 min and ~8 min | 5.24 ± 0.18 | 0.73 | –
4 | – | – | – | – | – | FVPTNVGSKAF-NH2 [CGRP(27-37), reference compound] | 1050 | 0.203 | 195000 | 0.087 ± 0.015 min | 0.06 ± 0.01 | 1040 | ~0.0833
